Measurements reported in the NIST ThermoML archive (doi:10.1021/je801006q).

Tests used:
[1] = 101.33 kPa, Liquid
[2] = xn = mol fraction of the nth substance listed; details: 101 kPa, Liquid
[3] = excess molar enthalpy (molar enthalpy of mixing); xn = mol fraction of the nth substance listed; details: 298.15 K, 101 kPa, Liquid, Calvet calorimetry

CC(C)CO [2-methyl-1-propanol]
[1]
Details	mass density [kg/m3]	viscosity [mPa·s]
293.15 K	801.28	3.943
298.15 K	797.74	3.332
303.15 K	794.32	2.884

CC(C)(C)O [2-methylpropan-2-ol]
[1]
Details	mass density [kg/m3]	viscosity [mPa·s]
293.15 K	795.68	5.486
298.15 K	780.65	4.436
303.15 K	775.76	3.378

O=C1CCCN1 [2-pyrrolidinone]
[1]
Details	mass density [kg/m3]	viscosity [mPa·s]
293.15 K	1109.84	15.84
298.15 K	1106.98	13.07
303.15 K	1103.38	10.69

O=C1CCCN1 [2-pyrrolidinone] + CC(C)CO
[2]
Details	mass density, 293.15 K [kg/m3]	mass density, 298.15 K [kg/m3]	mass density, 303.15 K [kg/m3]	viscosity, 293.15 K [mPa·s]	viscosity, 298.15 K [mPa·s]	viscosity, 303.15 K [mPa·s]
x1 = 0.0889	824.77	821.28	817.86	3.624	3.033	2.921
x1 = 0.1776	848.94	845.47	842.04	3.381	2.802	2.596
x1 = 0.2378	865.74	862.31	858.86	2.987	2.57	2.409
x1 = 0.3009	883.75	880.34	876.86	2.87	2.483	2.167
x1 = 0.3978	912.12	908.8	905.28	2.787	2.487	1.789
x1 = 0.4456	926.49	923.19	919.66	2.833	2.483	1.75
x1 = 0.5106	946.36	943.11	939.59	3.145	2.736	1.783
x1 = 0.5844	969.46	966.29	962.76	3.686	3.262	2.118
x1 = 0.6489	990.11	987	983.49	4.428	3.966	2.645
x1 = 0.7126	1010.87	1007.83	1004.4	5.569	4.938	3.369
x1 = 0.7943	1038.14	1035.18	1031.8	7.61	6.753	4.876
x1 = 0.8564	1059.36	1056.43	1053.04	9.46	8.552	6.388
x1 = 0.9126	1078.91	1075.98	1072.53	11.57	10.27	8.021
x1 = 0.9753	1100.98	1098.14	1094.58	14.55	12.91	10.15

[3]
Details	excess molar enthalpy [kcal/mol]
x1 = 0.0522	0.029
x1 = 0.1222	0.0512
x1 = 0.1812	0.065
x1 = 0.2451	0.0714
x1 = 0.3296	0.0748
x1 = 0.4043	0.074
x1 = 0.4535	0.0711
x1 = 0.5022	0.0663
x1 = 0.5912	0.0582
x1 = 0.6807	0.0489
x1 = 0.7402	0.043
x1 = 0.8466	0.0286
x1 = 0.9233	0.0171

O=C1CCCN1 [2-pyrrolidinone] + CCC(C)O
[2]
Details	mass density, 293.15 K [kg/m3]	mass density, 298.15 K [kg/m3]	mass density, 303.15 K [kg/m3]	viscosity, 293.15 K [mPa·s]	viscosity, 298.15 K [mPa·s]	viscosity, 303.15 K [mPa·s]
x1 = 0.0995	831.58	828.13	824.55	3.409	2.829	2.3
x1 = 0.1675	849.93	846.53	842.94	3.108	2.409	1.896
x1 = 0.2444	871.14	867.8	864.23	3.034	2.443	1.707
x1 = 0.2996	886.73	883.42	879.83	2.84	2.461	1.724
x1 = 0.3945	914.18	910.92	907.3	2.982	2.561	1.834
x1 = 0.4531	931.54	928.3	924.68	3.084	2.698	2.068
x1 = 0.4967	944.64	941.43	937.81	3.237	2.856	2.348
x1 = 0.5546	962.32	959.15	955.53	3.668	3.241	2.702
x1 = 0.6402	989.06	985.96	982.36	4.673	4.125	3.405
x1 = 0.7126	1012.23	1009.19	1005.62	5.995	5.238	4.304
x1 = 0.7895	1037.38	1034.41	1030.84	7.928	6.821	5.519
x1 = 0.8438	1055.57	1052.66	1049.12	9.691	8.277	6.842
x1 = 0.9096	1078.09	1075.19	1071.64	11.74	10.1	8.162
x1 = 0.9767	1101.54	1098.73	1095.14	14.73	12.47	10.15

[3]
Details	excess molar enthalpy [kcal/mol]
x1 = 0.0555	0.0404
x1 = 0.1212	0.0663
x1 = 0.1842	0.0823
x1 = 0.2443	0.0929
x1 = 0.3301	0.0988
x1 = 0.3903	0.0996
x1 = 0.4444	0.0966
x1 = 0.4998	0.092
x1 = 0.5887	0.0806
x1 = 0.6799	0.0665
x1 = 0.7389	0.0565
x1 = 0.8478	0.037
x1 = 0.9309	0.0215

O=C1CCCN1 [2-pyrrolidinone] + CCCCO
[2]
Details	mass density, 293.15 K [kg/m3]	mass density, 298.15 K [kg/m3]	mass density, 303.15 K [kg/m3]	viscosity, 293.15 K [mPa·s]	viscosity, 298.15 K [mPa·s]	viscosity, 303.15 K [mPa·s]
x1 = 0.0956	834.48	830.55	826.97	3.3	2.884	2.456
x1 = 0.1784	856.72	852.86	849.3	3.346	3.05	2.431
x1 = 0.2445	874.89	871.15	867.57	3.373	3.071	2.433
x1 = 0.3055	892	888.27	884.73	3.548	3.028	2.504
x1 = 0.3874	915.45	911.87	908.31	3.595	3.119	2.638
x1 = 0.4434	931.79	928.29	924.72	3.893	3.426	2.899
x1 = 0.4996	948.45	945.03	941.5	4.198	3.74	3.211
x1 = 0.5944	977.19	973.95	970.39	5.167	4.682	3.921
x1 = 0.6573	996.67	993.5	990.11	6.087	5.497	4.578
x1 = 0.7236	1017.57	1014.53	1011.05	7.353	6.572	5.384
x1 = 0.7983	1041.7	1038.72	1035.32	9.017	8.117	6.428
x1 = 0.8554	1060.58	1057.59	1054.15	10.75	9.56	7.469
x1 = 0.9121	1079.61	1076.71	1073.26	12.57	11.01	8.726
x1 = 0.9778	1102.22	1099.35	1095.78	14.88	12.7	10.3

[3]
Details	excess molar enthalpy [kcal/mol]
x1 = 0.0564	0.0234
x1 = 0.1225	0.039
x1 = 0.1877	0.0496
x1 = 0.2452	0.0563
x1 = 0.3266	0.0598
x1 = 0.3884	0.0603
x1 = 0.4453	0.0581
x1 = 0.5022	0.0556
x1 = 0.5963	0.0493
x1 = 0.6844	0.0412
x1 = 0.7452	0.0346
x1 = 0.8553	0.0227
x1 = 0.9278	0.0126

CCCCO [butan-1-ol]
[1]
Details	mass density [kg/m3]	viscosity [mPa·s]
293.15 K	809.52	2.941
298.15 K	805.54	2.572
303.15 K	801.92	2.275

CCC(C)O (stereo unspecified) [butan-2-ol]
[1]
Details	mass density [kg/m3]	viscosity [mPa·s]
293.15 K	805.54	3.625
298.15 K	802.06	2.998
303.15 K	798.45	2.489
